Source: paper PMC8953856, “α/β-Peptides as Nanomolar Triggers of Lipid Raft-Mediated Endocytosis through GM1 Ganglioside Recognition” (Pharmaceutics, 2022)
No end group written: not given here.

How the values were obtained:
[1] = Protease assay with chymotrypsin; type: in vitro ADME; conditions: chymotrypsin (isolated protease) in buffer; 100 mM TRIS–HCl pH 8.0 with 10 mM CaCl2; peptide 100 mM (so in the source); 50 mL of 0.5 mg/mL chymotrypsin stock to 500 mL peptide solution (so in the source); samples at 2, 6, 25, 60 min; HPLC–MS; < 24 = peak not detected at 2 min, 3% detection limit
Protocol: (§1) Protease assays: Peptides were dissolved in 100 mM TRIS–HCl buffer (pH 8.0) containing 10 mM CaCl2 at 100 mM concentration. Chymotrypsin (Sigma-Aldrich, Budapest, Hungary) stock solution was 0.5 mg/mL in the same buffer. A total […] peptide solution was measured in a reaction vessel and […] protease stock was added. Samples of […] were taken after 2, 6, 25 and 60 min. The samples were diluted into […] 5% TFA aliquots. The samples were then injected into HPLC–MS using a Phenomenex C18-XB Peptide column (250 × 4.6 mm, […]).

[2] = Protease assay with trypsin; type: in vitro ADME; conditions: trypsin (isolated protease) in buffer; 100 mM TRIS–HCl pH 8.0 without CaCl2; peptide 100 mM (so in the source); protease stock 0.5 mg/mL; samples at 2, 6, 25, 60 min; HPLC–MS; < 24 = peak not detected at 2 min, 3% detection limit
ganglioside GM1 = experiment: Isothermal titration calorimetry (ITC) with GM1:DPC 1:5 bicelles; type: binding; conditions: 35 °C, GM1:DPC 1:5 (GM1 300 µM in syringe) injected into 15 µM ligand in cell, pH 7.2 phosphate buffer, one- or two-site fit, experiments repeated twice; for Kd: read-out: Binding affinities (KD) to ganglioside GM1
Protocol: Isothermal Titration Calorimetry: ITC was performed using a MicroCal VP-ITC microcalorimeter at 35 °C. The monosialoganglioside GM1 was obtained from Biosynth-Carbosynth (Bratislava, Slovakia, product code: OG03918, C73H131N3O31·xNa, HPLC purity > 95%). The n-dodecylphosphocholine (DPC) was obtained from Avanti (Alabaster, Alabama, product code: 850336, C17H38NO4P, purity > 99%). In individual titrations, 15 µL of solution containing GM1:DPC 1:5 was injected into the ligand solution in the cell from a computer-controlled 300 µL microsyringe at time intervals of 300 s. The GM1:DPC micelle mixture was prepared in the same pH 7.2 phosphate buffer as the ligand in the cell. The concentration of the ligand in the cell was 15 µM. The concentration of GM1 in the syringe was 300 µM. In control experiments, GM1:DPC was titrated into the cell containing buffer without ligand. To rule out lipid clustering, control measurements were performed with pure GM1 in the syringe, which yielded a […], indicating the GM1:DPC interaction in the micelles (Figure S6). No aggregation of the micelles was observed after titration, which rules out any secondary inter-particle effects induced by ligand binding. We note that such an uncontrolled aggregation phenomenon would have been detrimental to the very sensitive ITC detection. Our finding is in agreement with the literature results that mixed micelles of GM1 and DPC are readily formed. The experiments were repeated twice. The experimental data were fitted to one-binding-site or two-independent-site models with adjustable parameters of ΔHb1, Kd1, n1, and ΔHb2, Kd2, n2, respectively. Background subtraction and spline baseline correction was applied prior to the application of a generalized reduced gradient nonlinear least-squares procedure. […] Errors were estimated by using jack-knife resampling.

Chymotrypsin = target: T1, Chymotrypsin (Bos taurus, UniProt P00766); experiment: Protease assay with chymotrypsin; type: in vitro ADME; conditions: chymotrypsin (isolated protease) in buffer; 100 mM TRIS–HCl pH 8.0 with 10 mM CaCl2; peptide 100 mM (so in the source); 50 mL of 0.5 mg/mL chymotrypsin stock to 500 mL peptide solution (so in the source); samples at 2, 6, 25, 60 min; HPLC–MS; < 24 = peak not detected at 2 min, 3% detection limit
T1 construct: purchased Sigma-Aldrich
Protocol: as §1

| Compound | half-life [1] [min] | half-life [2] [min] | Kd (ganglioside GM1) [µM] | further results |
| --- | --- | --- | --- | --- |
| WYKAW-NH2 [WYKAW] |  |  | 1.69 |  |
| NCCCC[C@H](NC(=O)[C@H](Cc1ccc(O)cc1)NC(=O)C[C@@H](N)Cc1c[nH]c2ccccc12)C(=O)N[C@@H](Cc1ccc(O)cc1)C(=O)N[C@@H](Cc1c[nH]c2ccccc12)C(N)=O [WβYKYW] | < 0.4 | 1.83 |  |  |
| NCCCC[C@H](NC(=O)[C@H](Cc1ccc(O)cc1)NC(=O)[C@@H](N)Cc1c[nH]c2ccccc12)C(=O)N[C@H](CC(=O)N[C@@H](Cc1c[nH]c2ccccc12)C(N)=O)Cc1ccc(O)cc1 [WYKYβW] | < 0.4 | 6.83 |  |  |
| WAKYW-NH2 [WAKYW] |  |  | 5.75 |  |
| NCCCC[C@H](NC(=O)C[C@H](Cc1ccc(O)cc1)NC(=O)[C@@H](N)Cc1c[nH]c2ccccc12)C(=O)N[C@@H](Cc1ccc(O)cc1)C(=O)N[C@@H](Cc1c[nH]c2ccccc12)C(N)=O [WYβKYW] |  | 15 |  | half-life (Chymotrypsin): 1.25 min |
| NCCCC[C@@H](CC(=O)N[C@@H](Cc1ccc(O)cc1)C(=O)N[C@@H](Cc1c[nH]c2ccccc12)C(N)=O)NC(=O)[C@H](Cc1ccc(O)cc1)NC(=O)[C@@H](N)Cc1c[nH]c2ccccc12 [WYKβYW] |  |  |  | half-life (Chymotrypsin): 10.8 min |
| AYKYW [Ala derivative of WYKYW, position 1] |  |  |  | Binding affinities (KD) to ganglioside GM1 (ganglioside GM1): n.f. ^[a] |

Further lines, with some results ahead:

| half-life [1] [min] | half-life [2] [min] | Kd (ganglioside GM1) [µM] | Compound | further results |
| --- | --- | --- | --- | --- |
| < 0.4 | < 0.4 |  | NCCCC[C@H](NC(=O)[C@H](Cc1ccc(O)cc1)NC(=O)[C@@H](N)Cc1c[nH]c2ccccc12)C(=O)N[C@@H](Cc1ccc(O)cc1)C(=O)N[C@H](CC(N)=O)Cc1c[nH]c2ccccc12 [WYKYWβ] |  |
|  |  | 10.5 | WYAYW-NH2 [WYAYW] |  |
|  |  | 1.06 | WYKYA-NH2 [WYKYA] |  |
